Legend:
[1] = system: RENCA cells; test: Anti-tumor response in RENCA tumor-bearing mice
Text: (§1) This experiment compared the anti-tumor response of tumor-bearing mice to treatment with one of three regimens: monotherapy with a murine anti-mouse PD-1 monoclonal antibody (anti-PD-1), monotherapy with Vorinostat and combination therapy with these two agents administered concurrently.
Tumor-bearing mice for this study were initiated by implanting 1×10^6 log-phase and sub-confluent RENCA cells on the right lower dorsal flank of 7-8 week old female BALB/cmice with an average body weight of 19 grams. When the mean tumor volume in these mice reached ˜100 cubic mm (65mm^3-140 mm^3) (FIG. 9(A)), the tumor-bearing mice were randomized to 4 treatment groups of 12 mice per group: (1) Isotype control +Vehicle control group;(2) Anti-PD-1 +Vehicle control; (3) Vorinostat+Isotype control and; (4) Anti-PD-1 +Vorinostat. A monoclonal antibody of murine isotype IgG1 against murine PD-1 and isotype control were obtained from internal sources. The isotype control was a mouse monoclonal antibody specific for adenoviral hexon 25 and was of the isotype IgG1. The formulations for each reagent was as follows: Isotype contro1:75 mM NaCl, 10 mM sodium phosphate, 3% sucrose, pH7.3; anti-PD-1: 20 mM sodium acetate, 7% sucrose, pH5.5; and Vorinostat vehicle: 0.5% HPC (hydroxypropylcellulose) with 0.002% SDS (sodium dodecyl sulfate) in sterile water. Anti-PD-1 was administered to treatment groups 2 and 4 at 5 mg/kg i.p. every 5 days for each of 5 cycles. Vorinostat was administered to treatment groups 3 and 4 at 150 mg/kg every day for 29 days.

[2] = system: CT-26 cells; test: Anti-tumor response in CT-26 tumor-bearing mice; assay type: in vivo, BALB/cAnN mice
Text: as §1
Tumor-bearing mice for this study were initiated by implanting 3×10^5 log-phase and sub-confluent CT-26 cells on the right lower dorsal flank of 7-8 week old female BALB/cAnN mice with an average body weight of 18 grams. When the mean tumor volume in these mice reached ˜100 cubic mm (60mm^3-150 mm^3) (FIG. 1(A)), the tumor-bearing mice were randomized to 4 treatment groups of 12 mice per group: (1) Isotype control+Vehicle control group;(2) anti-PD-1 +Vehicle control; (3) Vorinostat +Isotype control and; (4) anti-PD-1+Vorinostat. A monoclonal antibody of murine isotype IgG1 against murine PD-1 and isotype control were obtained from internal sources. The isotype control was a mouse monoclonal antibody specific for adenoviral hexon 25 and was of the isotype IgG1. […] Anti-PD-1 was administered to treatment groups 2 and 4 at 10 mg/kg i.p. every 5 days for each of 5 cycles. Vorinostat was administered to treatment groups 3 and 4 at 150 mg/kg every day for 27 days.

## O=C(CCCCCCC(=O)Nc1ccccc1)NO [Vorinostat, suberoylanilide hydroxamic acid]
[1]
  effect of Vorinostat on anti-PD-1 anti-tumor activity in the combination treatment arm: did not demonstrate antagonistic effects
[1]; at Day 30, FIG. 9(B)
  survival: 23%
[1]; monotherapy arms, measured through Day 29
  complete regressions (CRs): No CRs
[2]
  effect of Vorinostat on anti-PD-1 anti-tumor activity in the combination treatment arm: did not demonstrate antagonistic effects
[2]; 12 per group, measured through Day 29, anti-PD-1 10 mg/kg i.p. every 5 days x5, Vorinostat 150 mg/kg every day for 27 days
  complete regressions (CR): No CRs
[2]; at Day 30, FIG. 8(B)
  survival: 10%
